The source made the active and inactive calls.
Experiments:
[1] = target: T1, Coagulation factor XII (Homo sapiens, UniProt P00748); experiment: activated coagulation factor XII inhibitor potency, concentration-effect curve, cell-free (AID 716); assay type: functional
T1 sequence (P00748 whole entry): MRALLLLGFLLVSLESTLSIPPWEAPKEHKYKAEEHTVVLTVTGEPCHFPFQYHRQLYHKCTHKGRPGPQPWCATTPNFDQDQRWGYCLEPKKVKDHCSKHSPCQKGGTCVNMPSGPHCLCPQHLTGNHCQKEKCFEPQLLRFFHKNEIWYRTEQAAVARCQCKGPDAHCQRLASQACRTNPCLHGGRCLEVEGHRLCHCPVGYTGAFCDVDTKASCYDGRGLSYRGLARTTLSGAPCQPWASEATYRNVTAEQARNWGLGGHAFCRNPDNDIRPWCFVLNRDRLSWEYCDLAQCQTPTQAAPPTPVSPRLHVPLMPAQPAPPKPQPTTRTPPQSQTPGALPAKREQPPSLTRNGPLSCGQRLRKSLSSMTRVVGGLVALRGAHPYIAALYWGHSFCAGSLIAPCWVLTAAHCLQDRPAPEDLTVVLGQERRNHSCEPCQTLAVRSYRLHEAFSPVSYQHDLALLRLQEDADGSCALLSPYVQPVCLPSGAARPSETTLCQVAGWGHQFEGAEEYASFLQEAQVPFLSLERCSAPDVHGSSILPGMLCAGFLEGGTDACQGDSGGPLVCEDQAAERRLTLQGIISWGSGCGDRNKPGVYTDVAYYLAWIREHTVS

[2] = toxicity toward cultured mammalian cells – cell-based, plate reader, cherry-pick samples, cytotoxicity control, dose response (AID 504397); assay type: functional
[3] = target: T2, CAAX prenyl protease 2 (Saccharomyces cerevisiae S288c, UniProt Q03530); assay type: biochemical
T2 sequence (Q03530 whole entry): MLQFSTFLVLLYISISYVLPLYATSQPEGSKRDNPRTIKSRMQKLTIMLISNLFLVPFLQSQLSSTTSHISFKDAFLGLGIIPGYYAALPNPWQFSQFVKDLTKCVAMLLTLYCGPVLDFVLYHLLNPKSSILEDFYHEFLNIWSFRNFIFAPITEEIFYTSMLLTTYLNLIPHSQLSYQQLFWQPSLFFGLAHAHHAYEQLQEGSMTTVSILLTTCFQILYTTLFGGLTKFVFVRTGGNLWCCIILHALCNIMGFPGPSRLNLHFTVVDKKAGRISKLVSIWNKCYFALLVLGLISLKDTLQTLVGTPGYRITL

[4] = target: T3, Heat shock factor protein 1 (Mus musculus, UniProt P38532); experiment: decrease of HSF1-responsive luciferase luminescence – cell-based, NIH3T3, dose retest, confirmation (AID 2382); assay type: functional;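 note: NIH3T3 fibroblasts with HSF1-driven luciferase reporter stressed by proteasome inhibitor MG132; luminescence from HSF1-driven luciferase expression after 8 hours of MG132 stress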
T3 sequence (P38532 whole entry): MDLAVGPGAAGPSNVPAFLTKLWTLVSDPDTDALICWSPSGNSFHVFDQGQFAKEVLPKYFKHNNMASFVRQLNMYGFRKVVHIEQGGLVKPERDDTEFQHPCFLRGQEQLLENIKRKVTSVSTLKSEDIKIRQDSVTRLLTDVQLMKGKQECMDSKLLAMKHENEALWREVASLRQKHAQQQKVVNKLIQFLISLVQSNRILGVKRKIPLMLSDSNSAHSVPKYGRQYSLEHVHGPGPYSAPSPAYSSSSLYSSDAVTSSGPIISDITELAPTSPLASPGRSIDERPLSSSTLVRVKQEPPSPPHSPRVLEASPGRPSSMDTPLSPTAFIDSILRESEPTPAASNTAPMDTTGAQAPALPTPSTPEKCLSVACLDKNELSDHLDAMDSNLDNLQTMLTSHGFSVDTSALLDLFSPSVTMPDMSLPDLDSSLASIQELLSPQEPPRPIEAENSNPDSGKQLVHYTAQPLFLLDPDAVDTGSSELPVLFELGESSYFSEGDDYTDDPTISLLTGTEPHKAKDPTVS

[5] = target: SUMO-activating enzyme (Homo sapiens, UniProt Q9UBT2); experiment: blockers of UBC9-mediated SUMO conjugation – biochemical, AlphaScreen, SUMOylation inhibitor project, confirmation (AID 2018); assay type: functional
SUMO-activating enzyme, sequence (Q9UBE0 whole entry, the tested form may be a part): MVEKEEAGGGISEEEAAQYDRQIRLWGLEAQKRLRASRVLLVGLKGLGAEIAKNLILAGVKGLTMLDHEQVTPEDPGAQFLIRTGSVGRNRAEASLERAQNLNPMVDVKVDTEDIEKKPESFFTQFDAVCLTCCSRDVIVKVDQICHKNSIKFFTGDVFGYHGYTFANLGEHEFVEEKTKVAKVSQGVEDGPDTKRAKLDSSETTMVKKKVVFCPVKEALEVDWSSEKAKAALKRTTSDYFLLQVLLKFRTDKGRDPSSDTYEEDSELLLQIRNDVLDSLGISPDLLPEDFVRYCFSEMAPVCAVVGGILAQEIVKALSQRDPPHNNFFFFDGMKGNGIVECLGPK
SUMO-activating enzyme, sequence (Q9UBT2 whole entry, the tested form may be a part): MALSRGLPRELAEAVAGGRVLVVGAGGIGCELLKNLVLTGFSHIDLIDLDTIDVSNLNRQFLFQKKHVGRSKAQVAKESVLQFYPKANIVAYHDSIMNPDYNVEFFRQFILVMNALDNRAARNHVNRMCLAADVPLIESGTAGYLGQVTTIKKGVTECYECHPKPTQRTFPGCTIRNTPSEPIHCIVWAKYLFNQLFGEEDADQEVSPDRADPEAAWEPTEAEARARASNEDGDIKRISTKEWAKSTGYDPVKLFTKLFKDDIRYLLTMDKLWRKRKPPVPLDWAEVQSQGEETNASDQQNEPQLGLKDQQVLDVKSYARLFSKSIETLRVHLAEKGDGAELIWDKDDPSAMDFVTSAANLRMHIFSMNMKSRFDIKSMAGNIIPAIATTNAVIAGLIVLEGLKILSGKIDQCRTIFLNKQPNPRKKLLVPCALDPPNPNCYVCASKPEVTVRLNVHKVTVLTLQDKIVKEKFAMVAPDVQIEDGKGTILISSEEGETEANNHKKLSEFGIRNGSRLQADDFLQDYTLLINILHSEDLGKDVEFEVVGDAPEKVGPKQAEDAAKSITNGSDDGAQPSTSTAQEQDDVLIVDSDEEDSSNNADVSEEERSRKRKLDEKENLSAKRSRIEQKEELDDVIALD

[6] = target: T4, Type-1 angiotensin II receptor (Homo sapiens, UniProt P30556); experiment: agonist activity at AGTR1 – cell-based, uHTS hits, selectivity assay for APJ receptor agonist project, dose response (AID 488865); assay type: functional;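 note: beta-arrestin recruitment to AT1 measured by enzyme fragment complementation luminescence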
T4 sequence (P30556 whole entry): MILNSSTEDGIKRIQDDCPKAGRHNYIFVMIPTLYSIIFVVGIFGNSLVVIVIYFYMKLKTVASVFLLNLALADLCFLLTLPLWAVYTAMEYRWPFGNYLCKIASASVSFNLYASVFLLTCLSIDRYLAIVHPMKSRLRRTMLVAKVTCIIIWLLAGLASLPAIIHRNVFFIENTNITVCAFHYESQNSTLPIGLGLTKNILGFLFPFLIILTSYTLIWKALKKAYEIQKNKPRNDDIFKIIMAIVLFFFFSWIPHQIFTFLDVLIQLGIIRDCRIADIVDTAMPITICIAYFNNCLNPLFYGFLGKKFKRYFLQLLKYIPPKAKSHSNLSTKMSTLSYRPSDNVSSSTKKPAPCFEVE

[7] = NIH3T3 cell viability loss – ATP luminescence, mouse fibroblasts, counter-screen, dose response (AID 2010); assay type: functional, cell-based;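 note: cells exposed to compound for about 90 hours before reading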
[8] = Trypanosoma cruzi growth suppression in host cells – NIH3T3 host cells, beta-gal luminescence, confirmation (AID 2044); assay type: functional, cell-based;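 note: intracellular parasites grown in NIH/3T3 mouse fibroblasts as host cells; luminescent beta-galactosidase reporter signal from transgenic T. cruzi replicating inside host cells; inhibitors lower the luminescence signal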
[9] = system: HEK293; experiment: EBV LMP1 TES2 canonical NF-kB signalling blockers – cell-based, HEK293, luciferase, cherry-pick, dose response (AID 588343); assay type: functional; conditions: Homo sapiens
[10] = target: T5, Runt-related transcription factor 1/Core-binding factor subunit beta (Homo sapiens, UniProt Q01196+Q13951); experiment: disruptors of Runt domain/CBFb-SMMHC interaction – biochemical, FRET, Cerulean-Runt, Venus-CBFb-SMMHC, uHTS, […] (AID 1434); assay type: protein assay
T5 sequence (Q01196 whole entry, the tested form may be a part): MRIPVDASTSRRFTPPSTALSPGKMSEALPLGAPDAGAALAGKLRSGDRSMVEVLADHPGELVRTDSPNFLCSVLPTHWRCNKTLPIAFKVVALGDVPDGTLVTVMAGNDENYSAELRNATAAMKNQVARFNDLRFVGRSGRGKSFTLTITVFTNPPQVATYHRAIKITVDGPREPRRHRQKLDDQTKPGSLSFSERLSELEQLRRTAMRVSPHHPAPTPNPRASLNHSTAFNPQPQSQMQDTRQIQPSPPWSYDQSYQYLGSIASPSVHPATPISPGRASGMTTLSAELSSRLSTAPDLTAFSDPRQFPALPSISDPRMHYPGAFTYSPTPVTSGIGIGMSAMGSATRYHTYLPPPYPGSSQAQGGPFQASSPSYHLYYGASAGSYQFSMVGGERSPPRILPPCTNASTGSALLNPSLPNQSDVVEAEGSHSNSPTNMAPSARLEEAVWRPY
T5 sequence (Q13951 whole entry, the tested form may be a part): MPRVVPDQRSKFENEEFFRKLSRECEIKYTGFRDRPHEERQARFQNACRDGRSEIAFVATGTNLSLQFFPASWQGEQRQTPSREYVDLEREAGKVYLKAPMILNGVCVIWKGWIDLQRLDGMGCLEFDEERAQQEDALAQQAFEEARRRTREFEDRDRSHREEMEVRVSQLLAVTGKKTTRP

[11] = target: T5, Runt-related transcription factor 1/Core-binding factor subunit beta; experiment: Runt domain/CBFb-SMMHC interaction disruptors – biochemical, TR-FRET (AID 1438); assay type: protein assay
[12] = NIH-3T3 fibroblast cytotoxicity, dose response, cytotoxicity control, cell-based, fluorescence, Alamar Blue, secondary assay (AID 2327); assay type: functional;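 note: NIH-3T3 mouse fibroblasts cultured with fluconazole at 8 µg/mL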
[13] = fluconazole-exposed Candida albicans growth modulators – fluorescence, retest, confirmation (AID 2467); assay type: functional, cell-based
[14] = target: T6, Mannose-6-phosphate isomerase (Homo sapiens, UniProt P34949); experiment: MPI inhibition at elevated mannose 6-phosphate – biochemical, fluorescence intensity, high mannose 6-phosphate, primary screen (AID 1220)
T6 sequence (P34949 whole entry): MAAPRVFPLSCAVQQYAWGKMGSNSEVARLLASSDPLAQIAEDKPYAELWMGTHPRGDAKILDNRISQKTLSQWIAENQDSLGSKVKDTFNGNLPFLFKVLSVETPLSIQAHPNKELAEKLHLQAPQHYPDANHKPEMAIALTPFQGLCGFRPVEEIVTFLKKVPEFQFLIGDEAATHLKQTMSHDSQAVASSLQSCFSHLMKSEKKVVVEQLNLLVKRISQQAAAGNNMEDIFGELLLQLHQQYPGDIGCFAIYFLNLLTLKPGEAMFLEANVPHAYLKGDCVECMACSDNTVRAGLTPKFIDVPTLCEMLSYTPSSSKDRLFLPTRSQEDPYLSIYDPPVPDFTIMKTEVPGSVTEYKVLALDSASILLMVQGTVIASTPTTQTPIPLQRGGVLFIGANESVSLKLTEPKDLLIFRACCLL

[15] = target: Induced myeloid leukemia cell differentiation protein Mcl-1 (Homo sapiens, UniProt Q07820); assay type: functional
Induced myeloid leukemia cell differentiation protein Mcl-1, sequence (Q07820 whole entry): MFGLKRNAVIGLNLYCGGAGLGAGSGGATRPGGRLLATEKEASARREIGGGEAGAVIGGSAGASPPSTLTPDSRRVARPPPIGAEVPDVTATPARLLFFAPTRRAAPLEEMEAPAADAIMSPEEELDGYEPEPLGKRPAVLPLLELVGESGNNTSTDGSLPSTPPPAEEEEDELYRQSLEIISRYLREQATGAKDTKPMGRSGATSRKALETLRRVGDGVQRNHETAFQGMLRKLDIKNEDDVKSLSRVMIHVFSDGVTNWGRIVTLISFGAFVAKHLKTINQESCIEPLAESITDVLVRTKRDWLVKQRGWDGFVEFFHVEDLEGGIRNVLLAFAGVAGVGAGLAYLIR

[16] = target: 26S proteasome non-ATPase regulatory subunit 14 (Homo sapiens, UniProt O00487); experiment: inhibition of proteasome subunit RPN11 – biochemical, fluorescence polarization, uHTS hits, confirmation (AID 602368); assay type: functional
26S proteasome non-ATPase regulatory subunit 14, sequence (O00487 whole entry): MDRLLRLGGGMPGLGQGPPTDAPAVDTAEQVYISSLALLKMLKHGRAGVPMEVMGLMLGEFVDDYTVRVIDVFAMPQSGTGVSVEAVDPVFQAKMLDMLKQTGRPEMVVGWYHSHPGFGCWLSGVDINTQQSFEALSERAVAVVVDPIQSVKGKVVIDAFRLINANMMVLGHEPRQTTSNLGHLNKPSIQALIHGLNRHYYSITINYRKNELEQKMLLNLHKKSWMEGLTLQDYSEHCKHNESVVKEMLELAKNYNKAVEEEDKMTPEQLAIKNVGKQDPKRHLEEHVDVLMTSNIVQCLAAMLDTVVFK

[17] = target: Prothrombin (Bos taurus, UniProt P00735); experiment: thrombin protease inhibitors – biochemical, fluorescence polarization, uHTS hits, dose response (AID 602369); assay type: functional
[18] = target: 72 kDa type IV collagenase (Homo sapiens, UniProt P08253); experiment: Dose Response validation of uHTS RPN11 inhibitor hits using a MMP-2 Fluorescence assay.; assay type: functional
72 kDa type IV collagenase, sequence (P08253 whole entry): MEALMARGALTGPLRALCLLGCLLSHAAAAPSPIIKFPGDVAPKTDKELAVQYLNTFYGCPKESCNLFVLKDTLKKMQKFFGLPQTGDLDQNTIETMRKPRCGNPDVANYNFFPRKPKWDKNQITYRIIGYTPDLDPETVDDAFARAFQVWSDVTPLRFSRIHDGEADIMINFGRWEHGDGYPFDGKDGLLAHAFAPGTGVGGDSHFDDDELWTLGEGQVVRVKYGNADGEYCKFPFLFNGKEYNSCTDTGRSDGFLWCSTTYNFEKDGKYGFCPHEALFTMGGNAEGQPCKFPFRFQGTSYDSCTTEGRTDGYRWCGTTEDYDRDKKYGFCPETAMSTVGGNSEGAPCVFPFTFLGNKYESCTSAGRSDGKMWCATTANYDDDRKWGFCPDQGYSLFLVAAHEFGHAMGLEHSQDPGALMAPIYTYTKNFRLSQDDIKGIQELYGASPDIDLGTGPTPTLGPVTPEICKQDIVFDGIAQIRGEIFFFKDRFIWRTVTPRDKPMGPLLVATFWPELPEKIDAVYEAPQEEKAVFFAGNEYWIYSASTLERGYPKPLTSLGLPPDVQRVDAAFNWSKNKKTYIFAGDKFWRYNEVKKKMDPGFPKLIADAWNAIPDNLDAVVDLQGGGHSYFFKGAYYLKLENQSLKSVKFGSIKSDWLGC

[19] = target: T7, Aryl hydrocarbon receptor (Homo sapiens, UniProt P35869); experiment: Luminescence-based cell-based high throughput dose response assay for activators of the Aryl Hydrocarbon Receptor (AHR). [Related pubchem assays: 2796 (Primary screen (AHR activators in singlicate)), 2845 (Confirmation screen (AHR activators in triplicate)), 434939 (Counterscreen (PXR activators in triplicate)), 2804 (Summary (AHR activators))]; assay type: ADME
T7 sequence (P35869 whole entry): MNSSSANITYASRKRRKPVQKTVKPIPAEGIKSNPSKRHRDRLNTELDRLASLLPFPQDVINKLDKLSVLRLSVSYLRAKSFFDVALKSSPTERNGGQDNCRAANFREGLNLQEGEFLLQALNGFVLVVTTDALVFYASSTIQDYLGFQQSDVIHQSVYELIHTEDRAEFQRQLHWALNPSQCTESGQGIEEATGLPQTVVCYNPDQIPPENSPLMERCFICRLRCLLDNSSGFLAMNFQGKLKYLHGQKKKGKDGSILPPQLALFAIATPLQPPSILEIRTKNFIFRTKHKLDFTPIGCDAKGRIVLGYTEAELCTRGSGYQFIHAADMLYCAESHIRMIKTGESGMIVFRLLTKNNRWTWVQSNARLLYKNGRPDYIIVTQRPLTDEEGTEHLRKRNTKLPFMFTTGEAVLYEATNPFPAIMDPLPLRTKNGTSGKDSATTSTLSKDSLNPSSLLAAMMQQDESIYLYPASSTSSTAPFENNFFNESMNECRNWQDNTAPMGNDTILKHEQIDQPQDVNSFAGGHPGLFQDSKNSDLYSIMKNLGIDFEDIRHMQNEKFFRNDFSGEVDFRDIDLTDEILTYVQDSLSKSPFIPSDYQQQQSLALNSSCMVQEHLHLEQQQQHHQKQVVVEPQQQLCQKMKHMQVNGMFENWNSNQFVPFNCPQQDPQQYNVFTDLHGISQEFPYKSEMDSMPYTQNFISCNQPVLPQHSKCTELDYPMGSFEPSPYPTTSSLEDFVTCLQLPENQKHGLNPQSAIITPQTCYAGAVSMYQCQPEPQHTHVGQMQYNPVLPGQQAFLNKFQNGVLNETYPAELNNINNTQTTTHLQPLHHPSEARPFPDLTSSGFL

For `O=C(Nc1nccs1)c1cccc(S(=O)(=O)N2CCCCC2)c1`, the IC50 [1] was > 50 µM (inactive).

For `CN(C(=O)c1ccc2c(c1)SC1=NS(=O)(=O)CCN12)C(c1ccccc1)c1ccccc1`, the AC50 [2] was 138 µM (active), the AC50 [3] was 2.1 µM (active) and the EC50 [4] was > 195 µM (not active).

For `CCc1cc2cc(C(=O)Nc3ccccc3F)sc2s1`, the IC50 [1] was > 50 µM (inactive).

In the case of `Cc1ccc(O)c(NC(=O)c2cc3nc4c(c(C(F)(F)F)n3n2)CCc2ccccc2-4)c1`, the IC50 [5] is reported as 63.7 µM (active).

With `Cc1ccc(S(=O)(=O)Nc2nc(-c3ccccc3)cs2)cc1` the EC50 [6] was > 100 µM (inactive).

In the case of `Oc1c(N=NC(S)=Nc2ccccc2F)c2ccccc2n1Cc1ccccc1Cl`, the AC50 [2] is reported as 210 µM (active), the EC50 [7] is reported as 17.5 µM (active) and the EC50 [8] is reported as 1.28 µM (active). For the same molecule, the AC50 [9] was 18.7 µM (active).

In the case of `O=C(CC1Sc2ccccc2NC1=O)OCc1cc(=O)oc2cc(O)ccc12` (centres undefined), the IC50 [10] is reported as 2.71 µM (active) and the IC50 [11] is reported as 19.6 µM (active).

For `Cc1cccc(N2CCc3c2nc2ccc(Br)cc2c3N)c1`, the AC50 [2] was 94.9 µM (active), the EC50 [12] was 21.4 µM (inconclusive) and the EC50 [13] was 1.67 µM (active). The AC50 [3] was 8.82 µM (active) and the IC50 [14] was > 50 µM (not active).

With `CC(C)CNC(=O)c1c(N)n(Cc2ccco2)c2nc3ccccc3nc12` the IC50 [15] was 4.4 µM (not active), the IC50 [10] was 1.86 µM (active) and the IC50 [11] was 11.7 µM (active).

In the case of `CCCCC1=CC2=CC(=O)C(C)(OC(=O)C3CCCC3)C(=O)C2=CO1` (centres undefined), the IC50 [16] is reported as 7.64 µM (active), the IC50 [17] is reported as 7.84 µM (active) and the IC50 [18] is reported as > 100 µM (inactive). The EC50 [6] was > 100 µM (inactive).

In the case of `COc1cccc2c(=O)c3cccc(N)c3[nH]c12`, the IC50 [15] is reported as 6.38 µM (not active), the EC50 [19] is reported as > 91.8 µM (not active) and the IC50 [10] is reported as > 100 µM (inactive). For the same molecule, the IC50 [11] was > 100 µM (inactive).

Reference: ChEMBL document CHEMBL1201862, “PubChem BioAssay data set” (2004)
